# US20240139191A1, “SMALL MOLECULES AS LARP1 LIGANDS” (priority 2020, published 2024)
# Target: LARP1 DM15 region (Homo sapiens, UniProt Q6PKG0)
# Assay: binding of LARP1 DM15 region to capped RNA motifs
# Conditions: relative to endogenous (human) m7GpppC motif; FIGS. 1B & C
compound,measurement,value
Cn1c[n+]([C@@H]2O[C@H](COP(=O)(O)OP(=O)(O)OP(=O)(O)OC[C@H]3O[C@@H](n4cnc5c(N)ncnc54)[C@H](O)[C@@H]3O)[C@@H](O)[C@H]2O)c2nc(N)[nH]c(=O)c21 [m^7GpppA],interaction with DM15 region compared with m7GpppC-initiated mRNA targets,even tighter interaction
